The values that follow come from US10561658B2, “Thieno- and pyrrolopyrimidine analogues as anticancer agents and methods of use thereof” (UNIVERSITY OF MARYLAND, BALTIMORE COUNTY, priority 2015, dated 2020).

Assay [1] deals with Escherichia coli ATCC 25922. In words: Antimicrobial growth inhibition, E. coli. Type of assay: cell-based. The note with it: ATCC25922; Escherichia coli ATCC 25922, 100 μM. The procedure:
Evaluation of antimicrobial activity in vitro. Compounds were tested against the following panel of bacteria and fungi purchased from the American Type Culture Collection (ATCC). Briefly, bacteria were grown to mid-log phase, diluted with fresh medium to an optical density at 600 nm (OD600) of 0.030-0.060 and then diluted again 1:10. This suspension (195 μL) was added to wells in a 96 well microtiter plate (Sarstedt) and 5 μL of compound dissolved in DMSO was added to give a final concentration of 100-0.1 μM at 2.5% DMSO by volume. A DMSO negative control and standard antibiotic positive controls were included in each plate. All compounds were tested in triplicate for each concentration. Plates were sealed with parafilm, placed in a Ziploc bag to prevent evaporation, and incubated at 30° C. (fungi) or 37° C. (bacteria) for 16-20 hours (48 hours for C. neoformans). The OD600 values for each well were determined with a plate reader (Biotek, EL800) and the data were standardized to the DMSO control wells after subtracting the background from blank medium. Initial single concentrations were tested at 100 μM and active compounds were further tested with at least nine concentrations for a full dose response. Dose response curves were generated using GraphPad Prism 5 software and used to determine the MIC95 concentrations (minimal concentration that inhibits 95% of growth). Compounds 1, 2, 5 and 19 were screened for growth inhibition activity against a panel of bacteria and fungi at a concentration of 100 as shown in Table 2. Compound 5 was included to test the importance of the C4-Cl substituent for activity across a broader range of biological systems.

Assay [2] deals with L1210 leukemia cell line. In words: Apoptosis analysis (annexin V staining), L1210. Type of assay: cell-based, mouse. To be noted: for cells undergoing apoptosis (annexin V): L1210, 1 μM, 48 h. The procedure: FIGS. 5 A and B contains apoptosis analysis (annexin V staining) in the L1210 leukemia cell line relating to compounds 1 (ii), 2 (iii) and 19 (iv) relative to a control (i). After incubation with 1 μM compound (1) for 48 h, 60% of the cells were observed undergoing apoptotic cell death, with the vast majority of these in early apoptosis (FIG. 5A (ii)).
Many antineoplastic compounds arrest cell proliferation by activating specific checkpoints that block progression through the cell cycle. To test whether compounds 1 or 2 inhibited cell proliferation by this mechanism, their effects on L1210 cell cycle distributions were monitored using propidium iodide staining and flow cytometry (FIG. 7). Cell cycle and apoptosis studies were conducted on L1210, a mouse lymphocytic leukemia cell line obtained from the American Type Culture Collection and grown in Dulbecco's Modified Eagle's Medium (DMEM) plus 10% fetal bovine serum (FBS). 2×10^6 cells were seeded in 100 mm dishes and treated with vehicle alone or compounds 1 or 2 at the IC50 values determined by cell viability assays or an equivalent volume of DMSO. At 24 and 48 h following treatment the cells were collected, fixed, and stained with propidium iodide (Sigma Aldrich) immediately before analysis by flow cytometry. Vehicle-treated cells were largely confined to G1 and S phases, with very small (<5%) subpopulations in the G2/M phase or showing sub-(<G1) or super-genomic (>G2) DNA content.

The subject of assay [3] is MDA-MB-231 cells. Description: Cell cycle distribution (propidium iodide, flow cytometry), MDA-MB-231. The format is cell-based, human. The procedure: Cell cycle distributions of MDA-MB-231 cells after 48 hours in the presence of equitoxic (IC80) doses of (a) compound 1 (15 μM) or (b) compound 2 (8 μM) analyzed by flow cytometry of fixed, propidium iodide-stained cells and compared to vehicle controls (DMSO). A minimum of 3000 cells were analyzed per cell population. Each bar represents the mean±SD across 4 independent cell samples.
Cell-cycle and apoptosis studies were conducted in MDA-MB-231 cells. Cell-cycle analysis of compound 19 at 15 μM concentration lead to arrest of 60% cells in G2/M stage. Similarly, at 1.75 μM concentration, compound 20 arrested 30% of cells in G2/M stage. […] To evaluate the possible mechanism for arrest of cell proliferation, cell-cycle distribution was measured using propidium iodide staining and flow cytometry. […] There are several possibilities that could account for this, including: (i) that cell lysis occurs rapidly following induction of apoptosis, preventing significant accumulation of annexin V-positive bodies, or (ii) that a distinct cell death pathway is triggered by compound 19.
Human metastatic breast cancer MDA-MB-231 cells were obtained from the American Type Culture Collection (ATCC) (Rockville, Md.) and maintained in Dulbecco's Modified Eagle's Medium (DMEM) containing 10% fetal bovine serum (FBS) without antibiotics at 37° C. in a humidified, CO2-controlled incubator. The cytotoxicity of compounds 1 and 2 was assessed by reduction of 3-(4, 5-dimethylthiazol-2-yl)-2,5-diphenyltetrazolium bromide (MTT). MDA-MB-231 cells were seeded in 96-well plates at 5×10^3 cells per well and treated with a range of drug concentrations. After 48 hours, cell viability was measured using the MTT Cell Proliferation Assay kit (ATCC) according to the manufacturer's instructions. Percent cell viability was plotted as a function of drug concentrations and analyzed using a sigmoidal dose response function with PRISM v3.03 software (GraphPad) to resolve drug concentrations yielding 50% cell death (IC50). The cell cycle distributions of MDA-MB-231 cells treated with compounds 1 or 2 were analyzed using propidium iodide staining and flow cytometry. 2×10^6 cells were seeded in 100 mm dishes and treated with compounds 1 or 2 at the IC80 values determined by cell viability assays or an equivalent volume of DMSO. 48 h following treatment the cells were collected, fixed, and stained with propidium iodide (Sigma Aldrich) immediately before analysis by flow cytometry.
As shown in Example 11, compounds 1 and 2 both induced apoptosis but involving a mechanism independent of cell cycle arrest. To test whether the toxicity of these agents for MDA-MB-231 cells proceeded via a similar pathway, their effects were monitored on cell cycle distributions using propidium iodide staining and flow cytometry. […]
Background: A flow cytometer gives signals particle by particle.

One may read the inhibition as the percentage by which the read-out fell short of the control. A high value points to a strong effect. Turning to `Clc1nc(Cl)c2sccc2n1` [Compound 1, 2,4-Dichlorothieno[3,2-d]pyrimidine], in assay [1], the inhibition at 100 µM was under 43%. For the same molecule, in assay [2], the “cells undergoing apoptosis (annexin V)” value worked out at 60%. The “cells accumulated in G2/M phase” value in assay [3] (MDA-MB-231, IC80 dose, 48 h) is over 70%.
Take `Clc1nc(Cl)c2[nH]ccc2n1` [Compound 19, 2,4-Dichloropyrrolo[3,2-d]pyrimidine]: in assay [1], the inhibition at 100 µM was under 43%. The “cells undergoing apoptosis (annexin V)” value in assay [2] was found to be 85%. The “cells arrested in G2/M stage” value in assay [3] (15 μM) is 60%.
As to `Clc1nc(Cl)c2scc(Br)c2n1` [Compound 2, 7-Bromo-2,4-dichlorothieno[3,2-d]pyrimidine], the inhibition at 100 µM in assay [1] was under 43%. Moreover, in assay [2] (L1210, 5.4 μM), the “Annexin V positive cells” value is reported as 55% and the “cells consistent with late apoptosis” value came out at 40%. In addition, the “effect on cell cycle distribution” value in assay [3] (MDA-MB-231, IC80 dose, 48 h) is recorded as “no effect”.
